Results published in PubChem BioAssay (NCI).
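Five concentrations, 48 hours, 96-well plates. The concentration for 50% growth inhibition is given as GI50. At the TGI there is no net growth.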

Columns and labels:
Experiment in all cases: DTP human tumour cell line panel, 48 h
[1] = test system: NCI-H460 lung
[2] = test system: MCF7 breast
[3] = test system: EKVX NSCLC
[4] = test system: K-562 leukemia
[5] = test system: OVCAR-4 ovarian
[6] = test system: NCI/ADR-RES ovarian
[7] = test system: SNB-75 CNS
[8] = test system: RPMI-8226 leukemia
[9] = test system: SK-MEL-5 melanoma
[10] = test system: A549 NSCLC
[11] = test system: HCT-15 colon
[12] = test system: U251 CNS
[13] = test system: OVCAR-5 ovarian
[14] = test system: RXF 393 renal
[15] = test system: KM12 colon
[16] = test system: HOP-62 NSCLC
[17] = test system: NCI-H522 lung
[18] = test system: CAKI-1 renal
[19] = test system: LOX IMVI melanoma
[20] = test system: HT29 colon
[21] = test system: SW-620 colon
[22] = test system: DU-145 prostate
[23] = test system: A498 renal
[24] = test system: SNB-19 CNS
[25] = test system: SF-539 CNS
[26] = test system: OVCAR-8 ovarian
[27] = test system: CCRF-CEM leukemia
[28] = test system: MALME-3M melanoma
[29] = test system: 786-0 renal
[30] = test system: T-47D breast
[31] = test system: HCT-116 colon
[32] = test system: BT-549 breast
[33] = test system: SK-OV-3 ovarian
[34] = test system: IGROV1 ovarian
[35] = test system: MDA-MB-231 breast
[36] = test system: UACC-257 melanoma
[37] = test system: HCC-2998 colon
[38] = test system: SK-MEL-28 melanoma
[39] = test system: SN12C renal
[40] = test system: HL-60(TB) leukemia
[41] = test system: MOLT-4 leukemia
[42] = test system: SR leukemia
[43] = test system: NCI-H23 lung
[44] = test system: OVCAR-3 ovarian
[45] = test system: TK-10 renal
[46] = test system: SF-295 CNS
[47] = test system: NCI-H226 lung
[48] = test system: SF-268 CNS
[49] = test system: UO-31 renal
[50] = test system: HS 578T breast
[51] = test system: UACC-62 melanoma
[52] = test system: M14 melanoma
[53] = test system: PC-3 prostate
[54] = test system: SK-MEL-2 melanoma
[55] = test system: MDA-MB-435
[56] = test system: COLO 205 colon
[57] = test system: HOP-92 NSCLC
[58] = test system: ACHN renal

## CCCS(=O)(=O)Nc1cccc(Nc2ncnc3cc(NC(=O)CCl)ccc23)c1Cl
[1]
  GI50: 3.67 µM
  TGI: 8.06 µM
[2]
  GI50: 1.05 µM
  TGI: 5.92 µM
[3]
  GI50: 3.72 µM
  TGI: 12.3 µM
[4]
  GI50: 1.04 µM
  TGI: 17.1 µM
[5]
  GI50: 2.95 µM
  TGI: 7.76 µM
[6]
  GI50: 6.95 µM
  TGI: 25 µM
[7]
  GI50: 2.46 µM
  TGI: 5.72 µM
[8]
  GI50: 3.23 µM
  TGI: 8.56 µM
[9]
  GI50: 3.4 µM
  TGI: 7.14 µM
[10]
  GI50: 4.99 µM
  TGI: 10.1 µM
[11]
  GI50: 1.6 µM
  TGI: 6.95 µM
[12]
  GI50: 0.516 µM
  TGI: 1.16 µM
[13]
  GI50: 2.01 µM
  TGI: 5.64 µM
[14]
  GI50: 3.26 µM
  TGI: 7.13 µM
[15]
  GI50: 3.06 µM
  TGI: 7.13 µM
[16]
  GI50: 2.36 µM
  TGI: 7.12 µM
[17]
  GI50: 0.432 µM
  TGI: 0.913 µM
[18]
  GI50: 2.32 µM
  TGI: 5.95 µM
[19]
  GI50: 0.892 µM
  TGI: 3.9 µM
[20]
  GI50: 1.1 µM
  TGI: 4.74 µM
[21]
  GI50: 1.23 µM
  TGI: 4.16 µM
[22]
  GI50: 3.09 µM
  TGI: 6.31 µM
[23]
  GI50: 5.47 µM
  TGI: 11 µM
[24]
  GI50: 1.35 µM
  TGI: 4.58 µM
[25]
  GI50: 1.35 µM
  TGI: 4.54 µM
[26]
  GI50: 3.71 µM
  TGI: 14.1 µM
[27]
  GI50: 1.03 µM
  TGI: 4.68 µM
[28]
  GI50: 0.674 µM
  TGI: 4.28 µM
[29]
  GI50: 0.935 µM
  TGI: 3.88 µM
[30]
  GI50: 3.34 µM
  TGI: 9.99 µM
[31]
  GI50: 0.968 µM
  TGI: 4.03 µM
[32]
  GI50: 2.42 µM
  TGI: 6.69 µM
[33]
  GI50: 4 µM
  TGI: 8.16 µM
[34]
  GI50: 2.61 µM
  TGI: 7.06 µM
[35]
  GI50: 2.34 µM
  TGI: 6.08 µM
[36]
  GI50: 2.46 µM
  TGI: 7.57 µM
[37]
  GI50: 5.09 µM
  TGI: 10.6 µM
[38]
  GI50: 2.45 µM
  TGI: 9.67 µM
[39]
  GI50: 1.06 µM
  TGI: 3.85 µM
[40]
  GI50: 4.28 µM
  TGI: 10.9 µM
[41]
  GI50: 1.04 µM
  TGI: 7.13 µM
[42]
  GI50: 0.838 µM
  TGI: 5.49 µM
[43]
  GI50: 1.26 µM
  TGI: 5.25 µM
[44]
  GI50: 2.98 µM
  TGI: 6.62 µM
[45]
  GI50: 3.21 µM
  TGI: 7 µM
[46]
  GI50: 3.33 µM
  TGI: 7.17 µM
[47]
  GI50: 3.31 µM
  TGI: 11.9 µM
[48]
  GI50: 1.03 µM
  TGI: 4.62 µM
[49]
  GI50: 4.06 µM
  TGI: 7.65 µM
[50]
  GI50: 3.32 µM
  TGI: 17 µM
[51]
  GI50: 0.871 µM
  TGI: 3.68 µM
[52]
  GI50: 1.11 µM
  TGI: 5.16 µM
[53]
  GI50: 3.44 µM
  TGI: 8.44 µM
[54]
  GI50: 3.58 µM
  TGI: 8.92 µM
[55]
  GI50: 1.47 µM
  TGI: 5.76 µM
[56]
  GI50: 1.2 µM
  TGI: 5.51 µM
[57]
  GI50: 4.38 µM
  TGI: 8.54 µM
[58]
  GI50: 3.44 µM
  TGI: 7.23 µM

## COC(=O)C1=C(C(=O)ON)[C@@H]2C=C[C@@]1([C@@H](Cc1ccccc1)Nc1ccccc1)O2
[1]
  GI50: 16.6 µM
  TGI: 32.4 µM
[2]
  GI50: 2.34 µM
  TGI: 8.12 µM
[3]
  GI50: 1.83 µM
  TGI: 4.16 µM
[4]
  GI50: 2.46 µM
  TGI: 8.72 µM
[5]
  GI50: 1.62 µM
  TGI: 3.04 µM
[6]
  GI50: 17.4 µM
  TGI: 35.9 µM
[7]
  GI50: 12.4 µM
  TGI: 24.9 µM
[8]
  GI50: 2.13 µM
  TGI: 5.32 µM
[9]
  GI50: 14.7 µM
  TGI: 27.8 µM
[10]
  GI50: 16.9 µM
  TGI: 32.2 µM
[11]
  GI50: 1.76 µM
  TGI: 4.1 µM
[12]
  GI50: 14.3 µM
  TGI: 27.6 µM
[13]
  GI50: 15.6 µM
  TGI: 31 µM
[14]
  GI50: 1.67 µM
  TGI: 3.04 µM
[15]
  GI50: 15.5 µM
  TGI: 32.1 µM
[16]
  GI50: 16.9 µM
  TGI: 32.4 µM
[17]
  GI50: 1.48 µM
  TGI: 3.41 µM
[18]
  GI50: 1.61 µM
  TGI: 2.96 µM
[19]
  GI50: 1.5 µM
  TGI: 2.88 µM
[20]
  GI50: 1.89 µM
  TGI: 3.97 µM
[21]
  GI50: 1.8 µM
  TGI: 3.51 µM
[22]
  GI50: 1.84 µM
  TGI: 3.67 µM
[23]
  GI50: 12.3 µM
  TGI: 24.8 µM
[24]
  GI50: 16 µM
  TGI: 29.5 µM
[25]
  GI50: 15.5 µM
  TGI: 29 µM
[26]
  GI50: 14.4 µM
  TGI: 27.9 µM
[27]
  GI50: 2.43 µM
  TGI: 8.2 µM
[28]
  GI50: 1.69 µM
  TGI: 3.2 µM
[29]
  GI50: 1.85 µM
  TGI: 3.57 µM
[30]
  GI50: 1.61 µM
  TGI: 4.17 µM
[31]
  GI50: 1.67 µM
  TGI: 3.24 µM
[32]
  GI50: 7.06 µM
  TGI: 19.6 µM
[33]
  GI50: 15.6 µM
  TGI: 29.2 µM
[34]
  GI50: 2.03 µM
  TGI: 4.01 µM
[35]
  GI50: 1.79 µM
  TGI: 3.78 µM
[36]
  GI50: 2.07 µM
  TGI: 4.5 µM
[37]
  GI50: 17.2 µM
  TGI: 32.5 µM
[38]
  GI50: 1.93 µM
  TGI: 3.54 µM
[39]
  GI50: 1.87 µM
  TGI: 3.69 µM
[40]
  GI50: 1.45 µM
  TGI: 6.18 µM
[41]
  GI50: 2.86 µM
  TGI: 7.71 µM
[42]
  GI50: 2.02 µM
  TGI: 10.4 µM
[43]
  GI50: 14.1 µM
  TGI: 28.9 µM
[44]
  GI50: 1.57 µM
  TGI: 3 µM
[45]
  GI50: 1.7 µM
  TGI: 3.08 µM
[46]
  GI50: 15.1 µM
  TGI: 28.8 µM
[47]
  GI50: 14.5 µM
  TGI: 28.8 µM
[48]
  GI50: 14 µM
  TGI: 28.5 µM
[49]
  GI50: 1.51 µM
  TGI: 2.84 µM
[50]
  GI50: 19.5 µM
  TGI: 68.7 µM
[51]
  GI50: 6.37 µM
  TGI: 19.3 µM
[52]
  GI50: 1.87 µM
  TGI: 3.89 µM
[53]
  GI50: 1.84 µM
  TGI: 3.74 µM
[54]
  GI50: 15.6 µM
  TGI: 30 µM
[55]
  GI50: 4.33 µM
  TGI: 16.5 µM
[56]
  GI50: 1.77 µM
  TGI: 3.57 µM
[57]
  GI50: 1.5 µM
  TGI: 2.88 µM
[58]
  GI50: 1.67 µM
  TGI: 3.04 µM
